Test results: article PMC8842277, “Highly Antiproliferative Latonduine and Indolo[2,3-c]quinoline Derivatives: Complex Formation with Copper(II) Markedly Changes the Kinase Inhibitory Profile” (Journal of Medicinal Chemistry, 2022)

How the values were obtained:
MSK1 = MSK1 (Homo sapiens, UniProt O75582); assay: Kinase panel screen and IC50; format: biochemical
Text: (§1) Figure 7 (see also Table S4) summarizes the results of this assay as a histogram plotting the percentage of the remaining enzyme activity (x-axis) as a function of added lead compound (HL^8: blue trace, 8: red trace) for each of the 50 enzymes assayed (y-axis). […] Thus, the coordination to copper(II) completely changes the kinase inhibition profile of HL^8.
(§2) Figure 7 Screening of HL^8 and 8 against 50 enzymes: histogram with % remaining activity on the x-axis plotted against the compound identifier (blue trace: HL^8 and red trace: 8) and enzyme identifier on the […]. The screen was carried out at a compound concentration of 10 μM, an enzyme concentration of 50 nM, and an ATP concentration of 100 μM.
(§3) Both compounds were screened against the respective enzymes, and IC50 values were determined.
(§4) All kinase assays were carried out using Multidrop 384’s at room temperature in a total assay volume of 25.5 μL. To plates containing 0.5 μL of HL^8 and 8, DMSO control or acid blank […], 15 μL of an enzyme mix containing enzyme […], and excess peptide/protein substrate in buffer was added. Compounds were pre-incubated in the presence of the enzyme and peptide/protein substrate for 5 min before initiation of the reaction by addition of 10 μL of ATP (final concentration selected for each kinase at 5, 20, or 50 μM). Assays were carried out for 30 min at room temperature before termination by the addition of 5 μL of orthophosphoric acid. The assay plates were then harvested onto P81 Unifilter Plates by a PerkinElmer Harvester and air dried. The dry Unifilter plates were then sealed on the addition of MicroScint O and were counted in PerkinElmer Topcount scintillation counters.
(§5) IC50 values were determined by the International Centre for Kinase Profiling at the University of Dundee according to standard protocols published elsewhere.[109],[110]

SGK-1 = SGK-1 (Homo sapiens, UniProt O00141); assay: Kinase panel screen and IC50; format: biochemical
SGK-1, sequence (O00141 whole entry): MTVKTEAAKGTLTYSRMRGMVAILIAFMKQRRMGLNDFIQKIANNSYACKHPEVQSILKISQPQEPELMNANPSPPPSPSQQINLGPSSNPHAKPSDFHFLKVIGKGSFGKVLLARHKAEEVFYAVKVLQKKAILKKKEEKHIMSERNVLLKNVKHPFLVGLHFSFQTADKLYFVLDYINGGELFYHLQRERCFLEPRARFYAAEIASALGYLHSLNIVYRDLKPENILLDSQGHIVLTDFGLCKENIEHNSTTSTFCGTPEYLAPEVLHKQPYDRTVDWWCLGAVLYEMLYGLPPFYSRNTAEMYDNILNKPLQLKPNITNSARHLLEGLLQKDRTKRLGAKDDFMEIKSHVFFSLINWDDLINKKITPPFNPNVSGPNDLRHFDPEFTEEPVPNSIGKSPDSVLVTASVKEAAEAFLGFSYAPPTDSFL
Text: as §1, §2, §3, §4, §5

CaMK-1 = CaMK-1 (Homo sapiens, UniProt Q14012); assay: Kinase panel screen and IC50; format: biochemical
Text: as §1, §2, §3, §4, §5

PKA = PKA (Homo sapiens, UniProt P17612); assay: Kinase panel screen and IC50; format: biochemical
Text: as §1, §2, §3, §4, §5

PIM1 = PIM1 (Homo sapiens, UniProt P11309); assay: Kinase panel screen and IC50; format: biochemical
PIM1, sequence (P11309 whole entry): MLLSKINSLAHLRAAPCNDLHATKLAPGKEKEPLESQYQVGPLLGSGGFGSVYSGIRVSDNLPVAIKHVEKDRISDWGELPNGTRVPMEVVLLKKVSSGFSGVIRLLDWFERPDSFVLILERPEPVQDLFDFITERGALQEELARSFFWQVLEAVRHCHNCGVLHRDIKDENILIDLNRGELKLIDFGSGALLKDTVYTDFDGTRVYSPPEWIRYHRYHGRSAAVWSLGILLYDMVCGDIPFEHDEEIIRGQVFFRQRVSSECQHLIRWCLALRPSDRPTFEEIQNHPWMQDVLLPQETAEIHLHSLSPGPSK
Text: as §1, §2, §3, §4, §5

[1] = system: HCT-116 isogenic p53-knock-out subline; assay: MTT assay, 96 h; format: cell-based, human; settings: read-out: IC50 HCT-116p53ko, mean
Text: The oncosuppressor protein p53 controls the cellular response to DNA strand breaks induced by cytotoxic drugs or by radiation.[58] The p53 protein may enhance cell chemosensitivity by promoting apoptosis via different mechanisms including activation of proapoptotic genes such as bax and repression of antiapoptotic genes such as bcl-2 or in contrast increase chemoresistance by promoting p21-mediated and p21-independent growth arrest and DNA repair and by activation of antiapoptotic genes such as bcl-x. There is strong evidence that the modulation of drug sensitivity by p53 may be both drug- and cell type-specific.[59] […] Accordingly, essential differences in chemosensitivity were observed between cells with wild-type p53 gene and cells with knocked out p53 gene by homologous recombination.[60]
Human colonic adenocarcinoma cell lines Colo 205 doxorubicin-sensitive (ATCC-CCL-222) and Colo 320/MDR-LRP multidrug resistant over-expressing ABCB1 (MDR1)-LRP (ATCC-CCL-220.1) were purchased from LGC Promochem, Teddington, UK. The cells were cultured in an RPMI 1640 medium supplemented with 10% heat-inactivated fetal bovine serum, 2 mM L-glutamine, 1 mM Na-pyruvate, and 10 mM HEPES. The semi-adherent human colon cancer cells were detached with Trypsin-Versene (EDTA) solution for 5 min at 37 °C. An MRC-5 human embryonal lung fibroblast cell line (ATCC CCL-171) was purchased from LGC Promochem, Teddington, UK. The cells were cultured in Eagle’s minimal essential medium (EMEM, containing 4.5 g L^–1 glucose) supplemented with a non-essential amino acid mixture, a selection of vitamins, and 10% heat-inactivated fetal bovine serum. The HCT-116 colon carcinoma cells and isogenic p53-knock-out subline were a gift of Prof. Bert Vogelstein from The Johns Hopkins Oncology Center. Cells were cultured in McCoy’s 5A medium supplemented with 10% heat-inactivated fetal bovine serum and 4 mM L-glutamine. All cell lines were incubated at 37 °C, in a 5% CO2, 95% air atmosphere.
MRC-5 non-cancerous human embryonic lung fibroblast and human colonic adeno-carcinoma cell lines (doxorubicin-sensitive Colo 205 and multidrug resistant Colo 320 colonic adenocarcinoma cells) were used to determine the effect of compounds on cell growth. The effects of increasing concentrations of compounds on cell growth were tested in 96-well flat-bottomed microtiter plates. The compounds were dissolved in DMSO and stock solutions of 10 mM were prepared. These were further diluted in the appropriate cell culture medium by twofold serial dilution starting from 100 or 10 μM for the compounds. The adherent human embryonal lung fibroblast cells were cultured in 96-well flat-bottomed microtiter plates using EMEM supplemented with 10% heat-inactivated fetal bovine serum. The density of the cells was adjusted to 1 × 10^4 cells in 100 μL per well, the cells were seeded for 24 h at 37 °C, 5% CO2, then the medium was removed from the plates containing the cells, and the dilutions of compounds previously made in a separate plate were added to the cells in 200 μL. In the case of the colonic adenocarcinoma cells, the twofold serial dilutions of compounds were prepared in 100 μL of RPMI 1640, horizontally. The semi-adherent colonic adenocarcinoma cells were treated with Trypsin-Versene (EDTA) solution. They were adjusted to a density of 1 × 10^4 cells in 100 μL of RPMI 1640 medium and were added to each well, with the exception of the medium control wells. […]

MSK1, sequence (O75582 whole entry): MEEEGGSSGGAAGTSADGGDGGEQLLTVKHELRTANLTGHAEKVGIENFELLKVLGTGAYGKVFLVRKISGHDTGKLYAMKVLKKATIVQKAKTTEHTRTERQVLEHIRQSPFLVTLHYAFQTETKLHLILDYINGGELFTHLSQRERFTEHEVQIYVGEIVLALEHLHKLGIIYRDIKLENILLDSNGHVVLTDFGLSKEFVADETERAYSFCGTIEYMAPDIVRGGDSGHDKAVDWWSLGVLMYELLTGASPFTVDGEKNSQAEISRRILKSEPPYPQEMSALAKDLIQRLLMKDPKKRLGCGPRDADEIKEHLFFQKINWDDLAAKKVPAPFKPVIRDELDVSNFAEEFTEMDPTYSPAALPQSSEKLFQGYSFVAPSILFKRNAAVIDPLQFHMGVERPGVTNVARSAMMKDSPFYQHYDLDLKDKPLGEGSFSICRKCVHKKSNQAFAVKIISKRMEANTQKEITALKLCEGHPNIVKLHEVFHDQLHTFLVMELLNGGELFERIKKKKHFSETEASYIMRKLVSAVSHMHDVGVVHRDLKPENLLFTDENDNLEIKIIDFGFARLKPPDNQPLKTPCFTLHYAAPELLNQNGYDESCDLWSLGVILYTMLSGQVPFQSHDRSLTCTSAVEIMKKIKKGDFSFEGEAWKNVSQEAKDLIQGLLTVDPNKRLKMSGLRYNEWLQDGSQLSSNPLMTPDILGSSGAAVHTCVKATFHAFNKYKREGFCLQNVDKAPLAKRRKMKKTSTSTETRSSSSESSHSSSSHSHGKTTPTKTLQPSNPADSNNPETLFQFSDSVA

Question: Which results are given for `CC(=NNc1nc2ccccc2c2c1[nH]c1ccc(Br)cc12)c1ccc(CN2CCOCC2)cn1.[Cl][Cu][Cl]` [compound 8, CuCl2(HL^8)·H2O]?
Answer: % remaining activity (MSK1; MSK1, 10 µM compound): 17%; IC50 (MSK1; read-out: IC50 against MSK1): 2970 nM; % remaining activity (SGK-1; SGK-1, 10 µM compound): 5%; IC50 (SGK-1; read-out: IC50 against SGK-1): 8450 nM; % remaining activity (CaMK-1; CaMK-1, 10 µM compound): 9%; IC50 (CaMK-1; read-out: IC50 against CaMK-1): 750 nM; % remaining activity (PKA; PKA, 10 µM compound): 10%; IC50 (PKA; read-out: IC50 against PKA): 6690 nM; IC50 against PIM-1 (PIM1): did not register binding; % remaining activity (PIM1; PIM1, 10 µM compound): 72%; IC50 [1]: 41 nM
